Reference: patent US20160122342A1, “ENHANCER OF ZESTE HOMOLOG 2 INHIBITORS” (GLAXOSMITHKLINE INTELLECTUAL PROPERTY (NO.2) LIMITED, priority 2013, published 2016)
Structures can show the parent of a compound that is named as a salt. Where two headings read alike, the source gives them in different places.

Target: T1, EZH2 within the PRC2 complex (Homo sapiens, UniProt Q15910)
T1 construct: FLAG; made in house; host or cells: Sf9 cells
Test: Assay Protocol 1: EZH2 methyltransferase scintillation proximity assay, mononucleosome substrate
Assay type: biochemical
Method: Compounds contained herein were evaluated for their ability to inhibit the methyltransferase activity of EZH2 within the PRC2 complex. […] Mononucleosomes were captured on SPA beads and the resulting signal is read on a ViewLux plate reader. • 1. Prepare 10 mM stock of compounds from solid in 100% DMSO. • 2. […] Dispense 100 nL of compound from the dilution plate into reaction plates (Grenier Bio-One, 384-well, Cat#784075). Prepare the following solutions: • 1. 50 mM Tris-HCl, pH 8: Per 1 L of base buffer, combine 1 M Tris-HCl, pH 8 (50 mL) and distilled water (950 mL). • 2. 1× Assay Buffer: […] SPA Bead Suspension: […] Per 10 mL of 2× Substrate Solution, combine 1× Assay Buffer (9728.55 uL), 800 ug/mL mononucleosomes (125 uL), 1 mM cold SAM (4 uL), and 7.02 uM 3H-SAM (142.45 uL; 0.55 mCi/mL) to provide a final concentration of 5 ug/mL nucleosomes, 0.2 uM cold SAM, and 0.05 uM 3H-SAM. • 6. 2.67× Quench/Bead Mixture: Per 10 mL of 2.67× Quench/Bead Mixture, combine ddH2O (9358 uL), 10 mM cold SAM (267 uL), 40 mg/mL Bead Suspension (375 uL) to provide a final concentration of 100 uM cold SAM and 0.5 mg/mL SPA beads. • 1. Dispense 100 nL/well of 100× Compound to test wells (as noted above). • 2. […] • 1. Dispense 5 uL/well of 1× Assay Buffer to column 18 (low control reactions). • 2. Dispense 5 uL/well of 2× Enzyme Solution to columns 1-17, 19-24. • 3. Spin assay plates for ˜1 minute at 500 rpm. • 4. Stack the assay plates, covering the top plate. • 5. Incubate the compound/DMSO with the enzyme for 30 minutes at room temperature. • 6. Dispense 5 uL/well of 2× Substrate Solution to columns 1-24. • 7. Spin assay plates for ˜1 minute at 500 rpm. • 8. Stack the assay plates, covering the top plate. • 9. Incubate the assay plates at room temperature for 1 hour. • 1. Dispense 5 uL/well of the 3× Quench/Bead Mixture to columns 1-24. • 2. Seal the top of each assay plate with adhesive TopSeal. • 3. Spin assay plates for ˜1 minute at 500 rpm. • 4. […] • 1. Read the assay plates on the Viewlux Plate Reader utilizing the 613 nm emission filter with a 300 s read time. Reagent addition can be done manually or with automated liquid handler. The final DMSO concentration in this assay is 1%. The positive control is in column 6; negative control is in column 18. Final starting concentration of compounds is 100 μM. Percent inhibition was calculated relative to the DMSO control for each compound concentration and the resulting values were fit using standard IC50 fitting parameters within the ABASE data fitting software package.

[1] = Assay Protocol 1, SPA, 3H-SAM, Histone H3 of mononucleosome purified from HeLa cells, 5-member PRC2 complex, read-out: EZH2 IC50

T1 sequence (Q15910 whole entry): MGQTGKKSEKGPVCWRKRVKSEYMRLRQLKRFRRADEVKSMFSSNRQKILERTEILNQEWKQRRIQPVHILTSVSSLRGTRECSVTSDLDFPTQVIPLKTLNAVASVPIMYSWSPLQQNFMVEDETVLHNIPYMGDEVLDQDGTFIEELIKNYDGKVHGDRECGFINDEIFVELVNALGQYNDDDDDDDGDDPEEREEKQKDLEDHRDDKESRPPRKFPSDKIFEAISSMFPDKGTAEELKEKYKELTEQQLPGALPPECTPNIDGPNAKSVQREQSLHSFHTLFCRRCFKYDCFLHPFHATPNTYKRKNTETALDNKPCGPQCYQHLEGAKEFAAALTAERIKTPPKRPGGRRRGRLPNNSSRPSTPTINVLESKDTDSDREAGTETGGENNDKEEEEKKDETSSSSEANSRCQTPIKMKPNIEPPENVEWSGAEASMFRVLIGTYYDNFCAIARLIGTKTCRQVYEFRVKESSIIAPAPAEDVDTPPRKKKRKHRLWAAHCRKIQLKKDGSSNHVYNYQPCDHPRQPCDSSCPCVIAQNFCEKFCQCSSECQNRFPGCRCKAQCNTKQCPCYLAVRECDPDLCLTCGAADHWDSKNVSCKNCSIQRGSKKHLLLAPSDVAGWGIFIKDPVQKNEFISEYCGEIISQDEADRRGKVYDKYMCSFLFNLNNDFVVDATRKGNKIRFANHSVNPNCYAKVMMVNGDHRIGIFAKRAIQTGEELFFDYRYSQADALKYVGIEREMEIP
T1 sequence (O75530 whole entry partner): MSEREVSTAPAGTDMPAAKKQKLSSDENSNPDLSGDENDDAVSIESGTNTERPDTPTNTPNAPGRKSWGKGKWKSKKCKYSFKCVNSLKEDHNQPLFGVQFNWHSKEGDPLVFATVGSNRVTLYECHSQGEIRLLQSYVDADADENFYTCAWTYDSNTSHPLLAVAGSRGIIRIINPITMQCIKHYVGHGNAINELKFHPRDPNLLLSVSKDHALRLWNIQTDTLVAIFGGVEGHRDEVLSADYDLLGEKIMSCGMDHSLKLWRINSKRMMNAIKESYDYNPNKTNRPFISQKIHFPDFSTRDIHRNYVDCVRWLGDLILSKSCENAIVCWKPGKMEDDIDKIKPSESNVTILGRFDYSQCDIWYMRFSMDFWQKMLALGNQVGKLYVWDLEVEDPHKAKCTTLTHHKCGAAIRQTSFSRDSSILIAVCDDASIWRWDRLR
T1 sequence (Q15022 whole entry partner): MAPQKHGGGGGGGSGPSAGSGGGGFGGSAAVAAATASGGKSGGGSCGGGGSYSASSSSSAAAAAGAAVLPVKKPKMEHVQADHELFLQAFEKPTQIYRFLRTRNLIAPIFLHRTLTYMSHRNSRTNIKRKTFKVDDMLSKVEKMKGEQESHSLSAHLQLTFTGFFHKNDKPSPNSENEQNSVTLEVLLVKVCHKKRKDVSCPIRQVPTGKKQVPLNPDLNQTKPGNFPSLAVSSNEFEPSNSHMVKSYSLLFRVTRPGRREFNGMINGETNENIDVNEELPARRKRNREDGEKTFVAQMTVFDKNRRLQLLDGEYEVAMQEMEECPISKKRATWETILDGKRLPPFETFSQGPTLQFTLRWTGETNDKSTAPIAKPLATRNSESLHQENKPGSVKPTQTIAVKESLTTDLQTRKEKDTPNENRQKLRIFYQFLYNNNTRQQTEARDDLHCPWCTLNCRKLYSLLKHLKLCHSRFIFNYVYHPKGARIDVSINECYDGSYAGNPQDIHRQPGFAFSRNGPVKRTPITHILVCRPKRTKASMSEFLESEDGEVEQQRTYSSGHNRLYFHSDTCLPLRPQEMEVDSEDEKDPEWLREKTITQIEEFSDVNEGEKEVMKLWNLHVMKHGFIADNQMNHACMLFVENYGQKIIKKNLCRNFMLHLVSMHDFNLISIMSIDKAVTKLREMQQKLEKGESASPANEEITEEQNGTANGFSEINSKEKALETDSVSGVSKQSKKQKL
T1 sequence (Q09028 whole entry partner): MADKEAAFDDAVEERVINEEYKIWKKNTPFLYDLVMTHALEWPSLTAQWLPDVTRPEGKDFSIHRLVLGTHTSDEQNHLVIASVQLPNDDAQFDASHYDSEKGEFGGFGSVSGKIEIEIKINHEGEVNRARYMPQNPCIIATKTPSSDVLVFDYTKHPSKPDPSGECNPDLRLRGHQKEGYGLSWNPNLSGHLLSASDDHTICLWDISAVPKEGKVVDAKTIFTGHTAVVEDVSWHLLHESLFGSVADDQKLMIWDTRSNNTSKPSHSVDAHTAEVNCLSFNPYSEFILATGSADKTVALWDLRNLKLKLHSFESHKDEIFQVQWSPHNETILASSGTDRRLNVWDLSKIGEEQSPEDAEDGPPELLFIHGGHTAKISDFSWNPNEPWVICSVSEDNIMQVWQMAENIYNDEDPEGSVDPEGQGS
T1 sequence (Q6ZN18 whole entry partner): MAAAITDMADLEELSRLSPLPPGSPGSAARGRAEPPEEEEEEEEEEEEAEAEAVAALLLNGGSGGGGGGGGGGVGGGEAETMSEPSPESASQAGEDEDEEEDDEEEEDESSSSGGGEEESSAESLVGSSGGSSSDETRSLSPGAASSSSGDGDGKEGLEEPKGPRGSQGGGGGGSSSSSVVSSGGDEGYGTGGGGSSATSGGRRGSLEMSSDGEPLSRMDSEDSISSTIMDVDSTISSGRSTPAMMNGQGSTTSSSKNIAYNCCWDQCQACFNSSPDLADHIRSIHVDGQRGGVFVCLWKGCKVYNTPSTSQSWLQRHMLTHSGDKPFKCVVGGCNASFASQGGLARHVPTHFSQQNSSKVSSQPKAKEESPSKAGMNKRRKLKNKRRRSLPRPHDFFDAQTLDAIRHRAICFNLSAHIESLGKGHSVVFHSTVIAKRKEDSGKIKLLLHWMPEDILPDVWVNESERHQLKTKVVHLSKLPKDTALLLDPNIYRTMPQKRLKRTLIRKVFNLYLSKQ

Row | SMILES | IC50 [1] [nM] | IC50 [nM]
1 | CCN(c1cccc2c1C/C=C/CC(C)c1cc(C)[nH]c(=O)c1CNC2=O)C1CCOCC1 (stereo not shown) [Example 23, (E)-10-(ethyl(tetrahydro-2H-pyran-4-yl)amino)-3,5-dimethyl-5,6,15,16-tetrahydrobenzo[c]pyrido[4,3-j][1]azacyclododecine-1,14(2H,9H)-dione] | 126 | –
2 | CCN(c1cccc2c1C/C=C\C(CO)Cc1cc(C)[nH]c(=O)c1CNC2=O)C1CCOCC1 (stereo not shown) [Example 26, (Z)-10-(ethyl(tetrahydro-2H-pyran-4-yl)amino)-6-(hydroxymethyl)-3-methyl-5,6,15,16-tetrahydrobenzo[c]pyrido[4,3-j][1]azacyclododecine-1,14(2H,9H)-dione] | 12600 | –
3 | Cc1cc2c(c(=O)[nH]1)CNC(=O)c1cc(Cl)cc(O[C@H]3CC[C@H](N)CC3)c1C/C=C\CC2 [Example 4, (Z)-10-((trans-4-aminocyclohexyl)oxy)-12-chloro-3-methyl-5,6,15,16-tetrahydrobenzo[c]pyrido[4,3-j][1]azacyclododecine-1,14(2H,9H)-dione hydrochloride] | – | 2510
4 | Cc1cc2c(c(=O)[nH]1)CNC(=O)c1cc(Cl)cc(O[C@H]3CC[C@H](N(C)C)CC3)c1C/C=C\CC2 [Example 5, (Z)-12-chloro-10-((trans-4-(dimethylamino)cyclohexyl)oxy)-3-methyl-5,6,15,16-tetrahydrobenzo[c]pyrido[4,3-j][1]azacyclododecine-1,14(2H,9H)-dione] | 2510 | –
5 | CCN(c1cccc2c1C/C=C\CCc1cc(C)[nH]c(=O)c1CNC2=O)C1CCOCC1 [Example 7, (Z)-10-(ethyl(tetrahydro-2H-pyran-4-yl)amino)-3-methyl-5,6,15,16-tetrahydrobenzo[c]pyrido[4,3-j][1]azacyclododecine-1,14(2H,9H)-dione hydrochloride, 0.10 1,4-dioxane solvate] | 1590 | –
6 | CCN(c1cccc2c1CCCC(CO)Cc1cc(C)[nH]c(=O)c1CNC2=O)C1CCOCC1 (stereo not shown) [Example 27, 10-(ethyl(tetrahydro-2H-pyran-4-yl)amino)-6-(hydroxymethyl)-3-methyl-6,7,8,9,15,16-hexahydrobenzo[c]pyrido[4,3-j][1]azacyclododecine-1,14(2H,5H)-dione] | 316 | –
7 | CCN(c1cccc2c1C/C=C\CC(C)c1cc(C)[nH]c(=O)c1CNC2=O)C1CCOCC1 (stereo not shown) [Example 22, (Z)-10-(ethyl(tetrahydro-2H-pyran-4-yl)amino)-3,5-dimethyl-5,6,15,16-tetrahydrobenzo[c]pyrido[4,3-j][1]azacyclododecine-1,14(2H,9H)-dione] | 6310 | –

The remaining compounds from weak to strong by IC50 [1], led by results:

Row | IC50 [1] [nM] | SMILES | IC50 [nM]
8 | 1260 | CCN(c1cccc2c1C/C=C/CCc1cc(C)[nH]c(=O)c1CN(CCO)C2=O)C1CCOCC1 [Example 29, (E)-10-(ethyl(tetrahydro-2H-pyran-4-yl)amino)-15-(2-hydroxyethyl)-3-methyl-5,6,15,16-tetrahydrobenzo[c]pyrido[4,3-j][1]azacyclododecine-1,14(2H,9H)-dione] | –
9 | 1000 | CCN(c1cccc2c1C/C=C/CN(C)Cc1cc(C)[nH]c(=O)c1CNC2=O)C1CCOCC1 [Example 10, (E)-11-(ethyl(tetrahydro-2H-pyran-4-yl)amino)-3,6-dimethyl-5,6,7,10,16,17-hexahydro-1H-benzo[h]pyrido[4,3-c][1,6]diazacyclotridecine-1,15(2H)-dione] | –
10 | 794 | CCN(c1cccc2c1C/C=C\COc1cc(C)[nH]c(=O)c1CNC2=O)C1CCOCC1 [Example 13, (Z)-10-(ethyl(tetrahydro-2H-pyran-4-yl)amino)-3-methyl-6,9,15,16-tetrahydro-1H-benzo[g]pyrido[4,3-b][1,5]oxaazacyclododecine-1,14(2H)-dione] | –
11 | 631 | CCN(c1cccc2c1CCCCC(C)c1cc(C)[nH]c(=O)c1CNC2=O)C1CCOCC1 (stereo not shown) [Example 24, 10-(ethyl(tetrahydro-2H-pyran-4-yl)amino)-3,5-dimethyl-6,7,8,9,15,16-hexahydrobenzo[c]pyrido[4,3-j][1]azacyclododecine-1,14(2H,5H)-dione] | –
12 | 631 | CCN(c1cccc2c1CCCC(O)CCc1cc(C)[nH]c(=O)c1CNC2=O)C1CCOCC1 (stereo not shown) [Example 28, 11-(ethyl(tetrahydro-2H-pyran-4-yl)amino)-7-hydroxy-3-methyl-5,6,7,8,9,10,16,17-octahydro-1H-benzo[c]pyrido[4,3-k][1]azacyclotridecine-1,15(2H)-dione] | –
13 | 501 | CCN(c1cc(Cl)cc2c1C/C=C\CCc1cc(C)[nH]c(=O)c1CNC2=O)C1CCOCC1 [Example 16, (Z)-12-chloro-10-(ethyl(tetrahydro-2H-pyran-4-yl)amino)-3-methyl-5,6,15,16-tetrahydrobenzo[c]pyrido[4,3-j][1]azacyclododecine-1,14(2H,9H)-dione hydrochloride] | –
14 | 501 | CCN(c1cccc2c1CCCCOCc1cc(C)[nH]c(=O)c1CNC2=O)C1CCOCC1 [Example 11, 11-(ethyl(tetrahydro-2H-pyran-4-yl)amino)-3-methyl-7,8,9,10,16,17-hexahydrobenzo[h]pyrido[4,3-c][1,6]oxaazacyclotridecine-1,15(2H,5H)-dione] | –
15 | 501 | COc1cc(Cl)cc2c1C/C=C/CCc1cc(C)[nH]c(=O)c1CNC2=O [Example 15, (E)-12-chloro-10-methoxy-3-methyl-5,6,15,16-tetrahydrobenzo[c]pyrido[4,3-j][1]azacyclododecine-1,14(2H,9H)-dione] | –
16 | 158 | CCN(c1cccc2c1C/C=C/C(CO)Cc1cc(C)[nH]c(=O)c1CNC2=O)C1CCOCC1 (stereo not shown) [Example 25, (E)-10-(ethyl(tetrahydro-2H-pyran-4-yl)amino)-6-(hydroxymethyl)-3-methyl-5,6,15,16-tetrahydrobenzo[c]pyrido[4,3-j][1]azacyclododecine-1,14(2H,9H)-dione] | –
